What all share (type): cell-based
Experiment [1] has as its target T1, von Hippel-Lindau disease tumor suppressor/Inactive tyrosine-protein kinase transmembrane receptor ROR1 (Homo sapiens, UniProt P40337+Q01973). Put plainly: PROTAC activity at VHL/ROR1 in human NCI-H23 cells assessed as induction of ROR1 degradation at 1 uM incubated for 24 hrs by Western blot analysis relative to control. Background: Immunoblotting shows a protein as a band on a membrane.

For experiment [2], the target named is T1, von Hippel-Lindau disease tumor suppressor/Inactive tyrosine-protein kinase transmembrane receptor ROR1. Put plainly: PROTAC activity at VHL/ROR1 in human NCI-H23 cells assessed as induction of ROR1 degradation at 0.1 uM incubated for 24 hrs by Western blot analysis relative to control.
Experiment [3] concerns the target T2, Protein cereblon/Inactive tyrosine-protein kinase transmembrane receptor ROR1 (Homo sapiens) (UniProt Q96SW2+Q01973). Put plainly: PROTAC activity at CRBN/ROR1 in human NCI-H23 cells assessed as induction of ROR1 degradation at 1 uM incubated for 24 hrs by Western blot analysis relative to control.
Experiment [4] deals with T2, Protein cereblon/Inactive tyrosine-protein kinase transmembrane receptor ROR1 (Homo sapiens). Put plainly: PROTAC activity at CRBN/ROR1 in human NCI-H23 cells assessed as induction of ROR1 degradation at 0.1 uM incubated for 24 hrs by Western blot analysis relative to control.

T1 sequence (P40337 whole entry): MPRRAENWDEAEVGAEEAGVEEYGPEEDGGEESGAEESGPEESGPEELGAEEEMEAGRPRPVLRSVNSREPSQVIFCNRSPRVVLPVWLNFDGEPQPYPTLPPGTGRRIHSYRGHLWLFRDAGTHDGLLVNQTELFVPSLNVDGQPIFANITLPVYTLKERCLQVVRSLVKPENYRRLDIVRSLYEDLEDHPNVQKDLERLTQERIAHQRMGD
T1 sequence (Q01973 30-937 partner limits assumed): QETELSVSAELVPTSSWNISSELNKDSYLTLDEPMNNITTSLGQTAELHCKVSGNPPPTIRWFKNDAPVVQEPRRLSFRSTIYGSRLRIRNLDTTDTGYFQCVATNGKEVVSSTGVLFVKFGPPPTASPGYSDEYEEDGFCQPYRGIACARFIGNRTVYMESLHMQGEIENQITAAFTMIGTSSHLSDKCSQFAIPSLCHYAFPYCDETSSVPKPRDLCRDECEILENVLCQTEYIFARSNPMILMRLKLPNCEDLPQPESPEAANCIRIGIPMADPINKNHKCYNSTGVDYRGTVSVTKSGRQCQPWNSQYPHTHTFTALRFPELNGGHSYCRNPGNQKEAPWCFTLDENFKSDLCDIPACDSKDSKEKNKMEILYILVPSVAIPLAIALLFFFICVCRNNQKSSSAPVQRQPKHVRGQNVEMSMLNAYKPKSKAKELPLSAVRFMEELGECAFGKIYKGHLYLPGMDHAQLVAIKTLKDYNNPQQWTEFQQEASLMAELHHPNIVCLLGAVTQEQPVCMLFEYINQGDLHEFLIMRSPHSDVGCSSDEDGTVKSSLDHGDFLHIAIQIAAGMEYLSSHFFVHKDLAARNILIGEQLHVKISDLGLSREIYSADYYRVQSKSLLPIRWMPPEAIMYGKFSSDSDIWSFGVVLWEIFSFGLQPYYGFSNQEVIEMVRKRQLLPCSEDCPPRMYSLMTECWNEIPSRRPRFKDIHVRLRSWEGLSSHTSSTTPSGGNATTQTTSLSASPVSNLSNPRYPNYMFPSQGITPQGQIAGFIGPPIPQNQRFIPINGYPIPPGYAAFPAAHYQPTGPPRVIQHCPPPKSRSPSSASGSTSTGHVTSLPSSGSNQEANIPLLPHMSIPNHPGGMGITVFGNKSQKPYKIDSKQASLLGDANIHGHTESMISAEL
T2 sequence (Q01973 whole entry, looked up): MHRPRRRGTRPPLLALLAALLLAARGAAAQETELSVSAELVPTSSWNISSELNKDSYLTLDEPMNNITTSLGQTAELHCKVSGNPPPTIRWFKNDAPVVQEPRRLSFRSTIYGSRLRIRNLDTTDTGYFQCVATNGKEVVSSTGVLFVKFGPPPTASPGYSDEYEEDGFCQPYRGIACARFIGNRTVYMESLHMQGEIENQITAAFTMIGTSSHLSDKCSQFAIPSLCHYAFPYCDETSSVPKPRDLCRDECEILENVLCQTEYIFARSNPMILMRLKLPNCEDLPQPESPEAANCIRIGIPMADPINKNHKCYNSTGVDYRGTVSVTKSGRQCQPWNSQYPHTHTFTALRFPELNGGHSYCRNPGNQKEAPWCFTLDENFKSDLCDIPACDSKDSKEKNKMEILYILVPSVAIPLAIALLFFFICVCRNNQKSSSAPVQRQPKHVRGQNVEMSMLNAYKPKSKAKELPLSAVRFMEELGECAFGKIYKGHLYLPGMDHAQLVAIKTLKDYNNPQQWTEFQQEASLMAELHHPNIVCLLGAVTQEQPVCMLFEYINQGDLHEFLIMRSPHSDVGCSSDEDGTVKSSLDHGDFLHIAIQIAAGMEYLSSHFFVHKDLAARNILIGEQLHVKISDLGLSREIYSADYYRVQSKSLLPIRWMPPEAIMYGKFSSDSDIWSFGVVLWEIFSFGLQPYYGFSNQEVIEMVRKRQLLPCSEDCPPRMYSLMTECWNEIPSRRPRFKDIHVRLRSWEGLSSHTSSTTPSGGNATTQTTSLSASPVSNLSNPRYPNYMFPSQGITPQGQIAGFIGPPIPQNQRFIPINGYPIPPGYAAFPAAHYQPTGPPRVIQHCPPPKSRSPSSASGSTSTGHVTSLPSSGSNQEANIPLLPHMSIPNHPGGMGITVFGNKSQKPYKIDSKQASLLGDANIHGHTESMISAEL
T2 sequence (Q96SW2 whole entry, looked up): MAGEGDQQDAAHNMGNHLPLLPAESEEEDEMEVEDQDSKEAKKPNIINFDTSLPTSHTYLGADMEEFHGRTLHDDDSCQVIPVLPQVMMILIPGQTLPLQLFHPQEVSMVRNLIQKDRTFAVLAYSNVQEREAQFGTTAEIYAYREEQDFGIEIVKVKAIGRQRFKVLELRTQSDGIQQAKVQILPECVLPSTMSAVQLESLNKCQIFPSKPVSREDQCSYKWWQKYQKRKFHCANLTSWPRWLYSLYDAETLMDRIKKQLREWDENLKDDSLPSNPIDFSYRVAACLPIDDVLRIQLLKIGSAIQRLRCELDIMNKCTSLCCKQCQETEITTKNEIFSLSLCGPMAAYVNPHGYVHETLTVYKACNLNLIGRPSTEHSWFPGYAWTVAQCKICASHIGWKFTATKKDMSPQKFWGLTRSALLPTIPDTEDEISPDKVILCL

For the compound `CCN1CCC(Nc2c(Br)cnc3[nH]c(-c4ccc(N5CCN(C(=O)CCCCCCCCCCC(=O)N[C@H](C(=O)N6C[C@H](O)C[C@H]6C(=O)NCc6ccc(-c7scnc7C)cc6)C(C)(C)C)CC5)cc4)nc23)CC1`, the Activity in experiment [1] stood at 99.7%; in experiment [2], 85.1%.

For `CCN1CCC(Nc2c(Br)cnc3[nH]c(-c4ccc(N5CCN(CC(=O)N[C@H](C(=O)N6C[C@H](O)C[C@H]6C(=O)NCc6ccc(-c7scnc7C)cc6)C(C)(C)C)CC5)cc4)nc23)CC1`, the Activity amounted to 46.2% in experiment [1] and 10.2% in experiment [2].

As to `CCN1CCC(Nc2c(Br)cnc3[nH]c(-c4ccc(N5CCN(CCCCCCCC(=O)N[C@H](C(=O)N6C[C@H](O)C[C@H]6C(=O)NCc6ccc(-c7scnc7C)cc6)C(C)(C)C)CC5)cc4)nc23)CC1`, the results for the Activity in experiment [1] and in experiment [2] were 99.6% and 52.5%, respectively.

For `CCN1CCC(Nc2c(Br)cnc3[nH]c(-c4ccc(N5CCN(CCCC(=O)N[C@H](C(=O)N6C[C@H](O)C[C@H]6C(=O)NCc6ccc(-c7scnc7C)cc6)C(C)(C)C)CC5)cc4)nc23)CC1`, the Activity in experiment [1] amounted to 23.6%; in experiment [2], 22.6%.

Regarding `CCN1CCC(Nc2c(Br)cnc3[nH]c(-c4ccc(N5CCN(CCNc6cccc7c6C(=O)N(C6CCC(=O)NC6=O)C7=O)CC5)cc4)nc23)CC1` (centres undefined), the values for the Activity in experiment [3] and in experiment [4] were 99.3% and 69.7%, respectively.

For `CCN1CCC(Nc2c(Br)cnc3[nH]c(-c4ccc(N5CCN(C(=O)CCCNc6cccc7c6C(=O)N(C6CCC(=O)NC6=O)C7=O)CC5)cc4)nc23)CC1` (centres undefined), the figures for the Activity in experiment [3] and in experiment [4] were 76% and 6.6%, respectively.

As to `CCN1CCC(Nc2c(Br)cnc3[nH]c(-c4ccc(N5CCN(C(=O)CCCCCNc6cccc7c6C(=O)N(C6CCC(=O)NC6=O)C7=O)CC5)cc4)nc23)CC1` (centres undefined), the figures for the Activity in experiment [3] and in experiment [4] were 75.8% and 6.2%, respectively.

In the case of `CCN1CCC(Nc2c(Br)cnc3[nH]c(-c4ccc(N5CCN(C(=O)COc6cccc7c6C(=O)N(C6CCC(=O)NC6=O)C7=O)CC5)cc4)nc23)CC1` (centres undefined), the Activity in experiment [3] amounted to 88.9%; in experiment [4] it was 38%.

Turning to `CCN1CCC(Nc2c(Br)cnc3[nH]c(-c4ccc(N5CCN(CCCCCC(=O)N[C@H](C(=O)N6C[C@H](O)C[C@H]6C(=O)NCc6ccc(-c7scnc7C)cc6)C(C)(C)C)CC5)cc4)nc23)CC1`, the Activity in experiment [1] amounted to 78.5%; in experiment [2], 29.3%.

For the compound `CCN1CCC(Nc2c(Br)cnc3[nH]c(-c4ccc(N5CCN(C(=O)CCCCC(=O)N[C@H](C(=O)N6C[C@H](O)C[C@H]6C(=O)NCc6ccc(-c7scnc7C)cc6)C(C)(C)C)CC5)cc4)nc23)CC1`, the figures for the Activity in experiment [1] and in experiment [2] were 35.3% and 12.9%, respectively.

As for `CCN1CCC(Nc2c(Br)cnc3[nH]c(-c4ccc(N5CCN(CCCNc6cccc7c6C(=O)N(C6CCC(=O)NC6=O)C7=O)CC5)cc4)nc23)CC1` (centres undefined), the Activity in experiment [3] was 99.7%; in experiment [4] it was 76.1%.

Take `CCN1CCC(Nc2c(Br)cnc3[nH]c(-c4ccc(N5CCN(C(=O)CNc6cccc7c6C(=O)N(C6CCC(=O)NC6=O)C7=O)CC5)cc4)nc23)CC1` (centres undefined): the Activity was 83.3% in experiment [3] and 0% in experiment [4].

For the compound `CCN1CCC(Nc2c(Br)cnc3[nH]c(-c4ccc(N5CCN(C(=O)CCCCCCCCCNc6cccc7c6C(=O)N(C6CCC(=O)NC6=O)C7=O)CC5)cc4)nc23)CC1` (centres undefined), the Activity in experiment [3] came out at 57.5%; in experiment [4], 6.7%.

As for `CCN1CCC(Nc2c(Br)cnc3[nH]c(-c4ccc(N5CCN(CCCCCCCCCC(=O)N[C@H](C(=O)N6C[C@H](O)C[C@H]6C(=O)NCc6ccc(-c7scnc7C)cc6)C(C)(C)C)CC5)cc4)nc23)CC1`, the Activity came to 88.4% in experiment [1] and 28.1% in experiment [2].

For `CCN1CCC(Nc2c(Br)cnc3[nH]c(-c4ccc(N5CCN(C(=O)CCC(=O)N[C@H](C(=O)N6C[C@H](O)C[C@H]6C(=O)NCc6ccc(-c7scnc7C)cc6)C(C)(C)C)CC5)cc4)nc23)CC1`, the Activity in experiment [1] turned out to be 85.8%; in experiment [2], 32.5%.

On to `CCN1CCC(Nc2c(Br)cnc3[nH]c(-c4ccc(N5CCN(C(=O)CCCCCCCOc6ccc7c(c6)C(=O)N(C6CCC(=O)NC6=O)C7=O)CC5)cc4)nc23)CC1` (centres undefined), for which the Activity in experiment [3] and in experiment [4] was 0% in each case.

Turning to `CCN1CCC(Nc2c(Br)cnc3[nH]c(-c4ccc(N5CCN(CCOCCOCCNc6cccc7c6C(=O)N(C6CCC(=O)NC6=O)C7=O)CC5)cc4)nc23)CC1` (centres undefined), the values for the Activity in experiment [3] and in experiment [4] were 89.6% and 11.1%, respectively.

Consider `CCN1CCC(Nc2c(Br)cnc3[nH]c(-c4ccc(N5CCN(C(=O)CCCCCCCOc6cccc7c6C(=O)N(C6CCC(=O)NC6=O)C7=O)CC5)cc4)nc23)CC1` (centres undefined), for which the values for the Activity in experiment [3] and in experiment [4] were 0% and 9.5%, respectively.

As to `CCN1CCC(Nc2c(Br)cnc3[nH]c(-c4ccc(N5CCN(C(=O)CCCCCCC(=O)N[C@H](C(=O)N6C[C@H](O)C[C@H]6C(=O)NCc6ccc(-c7scnc7C)cc6)C(C)(C)C)CC5)cc4)nc23)CC1`, the Activity in experiment [1] was 84.1%; in experiment [2], 36.5%.

Take `CCN1CCC(Nc2c(Br)cnc3[nH]c(-c4ccc(N5CCN(C(=O)CCCCCCCCCNc6ccc7c(c6)C(=O)N(C6CCC(=O)NC6=O)C7=O)CC5)cc4)nc23)CC1` (centres undefined): the results for the Activity in experiment [3] and in experiment [4] were 0% and 1.6%, respectively.

Regarding `CCN1CCC(Nc2c(Br)cnc3[nH]c(-c4ccc(N5CCN(C(=O)CCCOc6cccc7c6C(=O)N(C6CCC(=O)NC6=O)C7=O)CC5)cc4)nc23)CC1` (centres undefined), the results for the Activity in experiment [3] and in experiment [4] were 50.6% and 0%, respectively.

Take `CCN1CCC(Nc2c(Br)cnc3[nH]c(-c4ccc(N5CCN(CCOCCOCCNc6ccc7c(c6)C(=O)N(C6CCC(=O)NC6=O)C7=O)CC5)cc4)nc23)CC1` (centres undefined): the values for the Activity in experiment [3] and in experiment [4] were 88.7% and 0%, respectively.

For the origin of these results see ChEMBL document CHEMBL6153104, “Discovery of the first potent ROR1 degrader for the treatment of non-small cell lung cancer” (Eur J Med Chem, 2025).
